We go through 135 compounds from the OPERA property sets (Mansouri et al. 2018).

The compound `CC(=O)Nc1cc(C(F)(F)F)ccc1Cl` gave a logP of 2.24.

On to `CC(=O)Nc1ccccc1-c1ccccc1`, for which the lipophilicity (logP) is 2.02.

In turn, `CC(=O)Nc1ccc(Cl)cc1F` had a log partition coefficient (logP) of 1.91.

`NC(=O)c1c(Br)cccc1Br` registered a logP of 1.

Consider `COc1ccc(C)c(OC)c1`, for which the logP came to 2.76.

In turn, `COc1ccc(OC)c(Cl)c1` showed a log partition coefficient (logP) of 2.69.

In the case of `NC(=O)c1c(Cl)cccc1Br`, the logP worked out at 1.

Compound `CC(=O)Nc1ccc(Br)cc1C` showed a log partition coefficient (logP) of 2.03.

The compound `CC(=O)Nc1cccc(Cl)c1` returned a lipophilicity (logP) of 2.15.

In turn, `CCc1ccccc1C(N)=O` returned a log partition coefficient (logP) of 1.17.

For `NC(=O)c1c(F)cccc1Br`, the logP stood at 0.63.

In the case of `COc1c(C)cccc1NC(C)=O`, the log partition coefficient (logP) turned out to be 1.28.

With `CC(=O)Nc1cccc([N+](=O)[O-])c1`, the logP was found to be 1.47.

`CCc1cc(Br)ccc1NC(C)=O` showed a logP of 2.27.

Take `CC(=O)Nc1ccccc1Oc1ccccc1`: the logP was 2.37.

In the case of `CC(=O)Nc1cc(C)ccc1C`, the lipophilicity (logP) was found to be 1.47.

On to `CC(=O)Nc1cc(C(F)(F)F)cc(Cl)c1Cl`, for which the log partition coefficient (logP) was determined as 3.27.

In turn, `CC(=O)Nc1cc(Cl)cc(C(F)(F)F)c1F` came in with a logP of 3.15. This logP and that of the compound before are within 0.2 log units of each other.

The compound `CC(=O)Nc1ccc(Cl)c(C(F)(F)F)c1` registered a logP of 3.33.

For `CCc1cccc(CC)c1NC(C)=O`, the lipophilicity (logP) came to 1.85.

Consider `CC(=O)Nc1ccc(C)cc1C`, for which the logP was found to be 1.46.

Compound `COc1cccc(NC(C)=O)c1C` displayed a logP of 1.13.

`CC(=O)Nc1ccc(OC(F)(F)F)cc1` displayed a logP of 2.62.

`CC(=O)Nc1cc(C)c(Br)c(C)c1` returned a log partition coefficient (logP) of 3.28.

Consider `CCOc1ccc(C(N)=O)cc1`, for which the log partition coefficient (logP) worked out at 1.3.

Regarding `CC(=O)Nc1cc(Cl)c(F)c(Cl)c1F`, the lipophilicity (logP) was found to be 2.9.

Compound `CC(=O)Nc1c(C)cc(C)cc1[N+](=O)[O-]` came in with a log partition coefficient (logP) of 1.18.

In the case of `CC(=O)Nc1c([N+](=O)[O-])cccc1[N+](=O)[O-]`, the log partition coefficient (logP) worked out at 0.56.

`CCCc1cc(NC(C)=O)ccc1OC` had a logP of 2.72.

Compound `CC(=O)Nc1cccc(C)c1C` displayed a lipophilicity (logP) of 1.35.

Consider `CC(=O)Nc1ccc(Cl)c(Cl)c1Cl`, for which the logP was determined as 2.88.

In the case of `Cc1cccc(Cl)c1C(N)=O`, the logP was 0.89.

Take `NC(=O)c1ccccc1C(F)(F)F`: the log partition coefficient (logP) stood at 0.68.

As for `Cc1ccccc1C(N)=O`, the logP is 0.76.

Consider `COc1ccccc1C(=O)N(C)C`, for which the log partition coefficient (logP) turned out to be 0.71. This logP and that of the compound before are within 0.2 log units of each other.

`N#Cc1ccccc1C#N` had a logP of 0.99.

For `COc1cccc(NC(C)=O)c1`, the logP came out at 1.3.

With `CC(=O)Nc1cccc(Cl)c1Cl`, the logP turned out to be 2.09.

`COc1cccc(OC)c1C` yielded a logP of 2.87.

`N#Cc1ccccc1[N+](=O)[O-]` yielded a logP of 1.02.

On to `Cc1cccc(C)c1C(N)=O`, for which the logP worked out at 0.9.

`CC(=O)Nc1cc(C(F)(F)F)c(Cl)cc1Cl` had a logP of 3.24.

`CCCCc1ccc(NC(C)=O)cc1C` showed a logP of 3.64.

`CC(=O)Nc1ccc(C)c(C)c1C`: the log partition coefficient (logP) came out at 1.76.

In turn, `CC(=O)Nc1c(F)ccc(C(F)(F)F)c1Br` came in with a lipophilicity (logP) of 2.22.

As to `CC(=O)Nc1ccc(C)cc1[N+](=O)[O-]`, the log partition coefficient (logP) amounted to 1.49.

Turning to `CC(=O)Nc1c(C)cccc1[N+](=O)[O-]`, the logP was determined as 0.61.

Compound `CC(=O)Nc1ccc(Br)c(C)c1` had a lipophilicity (logP) of 2.8.

Take `CCCCc1ccc(NC(C)=O)c([N+](=O)[O-])c1`: the log partition coefficient (logP) was 3.1.

`COc1ccccc1Br` gave a log partition coefficient (logP) of 2.86.

`COc1cccc([N+](=O)[O-])c1C(N)=O`: the logP was -0.26.

Consider `CC(=O)Nc1c(C)cc(Br)cc1C`, for which the logP turned out to be 2.12.

The compound `NC(=O)c1c(Cl)cccc1[N+](=O)[O-]` came in with a logP of 0.12.

`CC(C)c1ccccc1[N+](=O)[O-]` displayed a logP of 3.34.

In turn, `NC(=O)c1ccccc1Cl` displayed a logP of 0.64.

`NC(=O)c1c(Cl)cccc1Cl` yielded a logP of 0.77.

`CC(=O)Nc1ccc(Cl)cc1Cl` returned a logP of 2.18.

Compound `CCc1ccccc1NC(C)=O` yielded a lipophilicity (logP) of 1.32.

In turn, `CC(=O)Nc1cc(C)cc(C)c1` registered a logP of 2.17.

`CC(=O)Nc1ccc(Br)c(Cl)c1F` displayed a logP of 2.86.

`CC(=O)Nc1c(F)c(F)c(F)c(F)c1F`: the logP was 1.7.

As for `CC(=O)Nc1ccc(C)c(Cl)c1`, the lipophilicity (logP) was 2.69.

With `CC(=O)Nc1ccccc1C(F)(F)F`, the log partition coefficient (logP) worked out at 1.17.

The compound `CC(=O)Nc1c(Br)cccc1Br` had a log partition coefficient (logP) of 1.53.

Regarding `CC(=O)Nc1cc(OC(F)(F)F)c(Cl)cc1Cl`, the logP came out at 3.71.

The compound `NC(=O)c1c(F)cccc1F` showed a log partition coefficient (logP) of 0.25.

For the compound `CC(=O)Nc1ccccc1Br`, the logP worked out at 1.34.

`CC(C)(C)c1ccc(C(N)=O)cc1`: the log partition coefficient (logP) worked out at 2.51.

`CC(=O)Nc1cc(Cl)ccc1Cl` gave a lipophilicity (logP) of 2.19.

`CC(=O)Nc1cc(C(F)(F)F)cc(C(F)(F)F)c1`: the logP came out at 3.72.

Compound `CC(=O)Nc1ccc(C)cc1` gave a logP of 1.7.

In the case of `N#Cc1cccc(C(N)=O)c1`, the logP was 0.52.

Turning to `COc1c(Cl)cccc1NC(C)=O`, the lipophilicity (logP) amounted to 1.68.

For `CC(=O)Nc1ccccc1F`, the logP came out at 1.03.

`CC(=O)Nc1ccc(Cl)cc1[N+](=O)[O-]` showed a log partition coefficient (logP) of 1.78.

With `COc1ccc(NC(C)=O)cc1Cl`, the logP was determined as 1.81.

Turning to `CC(=O)Nc1cc(C(F)(F)F)c(Cl)cc1F`, the lipophilicity (logP) was 3.02.

Compound `CC(=O)Nc1cc(Cl)cc(Cl)c1Br` showed a logP of 3.04.

The compound `CC(=O)Nc1cc(C)c(C)c(C)c1` yielded a logP of 2.5.

`CCCCc1ccc(NC(C)=O)c(C)c1`: the logP stood at 3.1.

With `COc1ccccc1Cl`, the log partition coefficient (logP) is 2.68.

`NC(=O)c1c(F)cccc1Cl` had a logP of 0.49.

Take `CCc1ccc(NC(C)=O)cc1`: the lipophilicity (logP) was determined as 2.2.

`CCc1cccc(C(C)C)c1NC(C)=O`: the log partition coefficient (logP) was 2.1.

As to `CC(=O)Nc1ccccc1I`, the lipophilicity (logP) was found to be 1.62.

On to `O=[N+]([O-])c1ccc(Cl)cc1[N+](=O)[O-]`, for which the lipophilicity (logP) was determined as 2.18.

On to `CC(=O)Nc1cc(C(F)(F)F)ccc1F`, for which the logP was 2.24.

Turning to `CC(=O)Nc1ccc(Cl)cc1C(F)(F)F`, the log partition coefficient (logP) came out at 1.98.

In turn, `CC(=O)Nc1cc(C(F)(F)F)c(Br)cc1F` returned a logP of 3.17.

In turn, `CC(=O)Nc1ccc(Br)c(C)c1Cl` had a logP of 2.73.

`CC(=O)Nc1c(C)cccc1C` registered a log partition coefficient (logP) of 1.07.

On to `COc1ccc(NC(C)=O)c([N+](=O)[O-])c1`, for which the logP is 1.09.

Consider `N#Cc1ccc(C(N)=O)cc1`, for which the logP was found to be 0.48.

The compound `CC(=O)Nc1cccc(Cl)c1C` yielded a lipophilicity (logP) of 1.82.

Regarding `COc1ccccc1F`, the logP stood at 2.14.

In turn, `NC(=O)c1ccccc1F` had a logP of 0.59.

`CC(=O)Nc1cc(C)c(O)cc1C` showed a log partition coefficient (logP) of 0.6.

Compound `CC(=O)Nc1cc(Cl)cc(C(F)(F)F)c1Br` came in with a log partition coefficient (logP) of 3.26.

`CC(=O)Nc1cc(F)cc(C(F)(F)F)c1Cl`: the log partition coefficient (logP) was found to be 2.86.

Compound `CC(=O)Nc1ccc(C)c(C)c1` gave a logP of 2.1.

`CCc1ccccc1OC` returned a lipophilicity (logP) of 3.18.

Regarding `CC(=O)Nc1cc(Cl)cc(Cl)c1`, the lipophilicity (logP) came out at 3.17.

Compound `CCCCc1ccc(NC(C)=O)cc1` had a logP of 3.3.

For `CC(=O)Nc1cccc(Cl)c1F`, the log partition coefficient (logP) worked out at 1.83.

In turn, `CC(=O)Nc1cc(Cl)cc(C(F)(F)F)c1Cl` showed a logP of 3.27.

In turn, `CC(=O)Nc1cccc(Br)c1` yielded a logP of 2.31.

`CC(=O)Nc1c(C)cccc1Cl`: the lipophilicity (logP) came to 1.22.

Turning to `COc1cccc(OC)c1`, the logP was found to be 2.21.

Take `CCc1cccc(C)c1NC(C)=O`: the logP was determined as 1.41.

For the compound `CC(=O)Nc1cccc(F)c1`, the logP was found to be 1.65.

`CC(=O)Nc1ccc(Oc2ccccn2)cc1` had a logP of 1.57.

`CC(=O)Nc1c(C(C)C)cccc1C(C)C`: the logP stood at 2.41.

On to `CC(=O)Nc1ccc(Cl)c(Cl)c1`, for which the log partition coefficient (logP) is 3.

`CC(=O)Nc1c(F)cccc1F` registered a logP of 0.69.

Consider `CC(=O)Nc1cc([N+](=O)[O-])c(Br)cc1F`, for which the logP turned out to be 2.11.

`Cc1cccc([N+](=O)[O-])c1C(N)=O` registered a logP of 0.1.

`CCc1cc(NC(C)=O)ccc1Br` returned a logP of 3.33.

`COc1cccc(Cl)c1C(N)=O` gave a logP of 0.59.

`CC(=O)Nc1ccc(C(N)=O)cc1` displayed a logP of 0.01.

The compound `NC(=O)c1ccccc1I` registered a logP of 0.93.

In the case of `CC(=O)Nc1ccc(Br)c(Cl)c1C`, the lipophilicity (logP) is 2.69.

The compound `CC(=O)Nc1cc(Cl)ccc1C` yielded a logP of 1.82.

`CCCCc1ccc(NC(C)=O)c(Br)c1` displayed a lipophilicity (logP) of 3.39.

Consider `CC(=O)Nc1cc(Br)cc(C(F)(F)F)c1Cl`, for which the logP turned out to be 3.41.

`NC(=O)c1c(Br)cccc1[N+](=O)[O-]` came in with a log partition coefficient (logP) of 0.28.

The compound `C=CCOc1cc(NC(C)=O)c(F)cc1Cl` yielded a lipophilicity (logP) of 2.76.

For the compound `COc1cc(Br)ccc1NC(C)=O`, the lipophilicity (logP) turned out to be 2.02.

Turning to `O=[N+]([O-])c1cc(C(F)(F)F)cc([N+](=O)[O-])c1Cl`, the logP was determined as 2.5.

For `COc1cccc(OC)c1C(N)=O`, the logP is -0.22.

The compound `CC(=O)Nc1c(Cl)cccc1Cl` returned a lipophilicity (logP) of 1.32.

Regarding `CC(=O)Nc1cc(C(F)(F)F)c(F)cc1F`, the logP amounted to 2.34.

For the compound `NC(=O)c1ccccc1Br`, the logP was found to be 0.77.

In turn, `COc1cccc([N+](=O)[O-])c1C` displayed a lipophilicity (logP) of 2.68.

`CC(C)c1ccccc1C(N)=O` registered a logP of 1.39.

As to `CC(=O)Nc1cc(Cl)c(Cl)c(Cl)c1`, the logP was 3.76.

In general, logP refers to the decadic logarithm of the partition coefficient of the neutral form, usually between octanol and water. The low end stands for a more hydrophilic compound, the high end for a more lipophilic compound.
